Columns and labels:
[1] = tested on: Human Skin (Hand and Temple); test: Acetylation of human skin (hand and temple) following dermabrasion, in ethanol or anhydrous alcohol; assay type: in vivo; details: 50 mg/mL in ethanol or anhydrous alcohol, 1 minute, after dermabrasion, up to 5 treatments
Protocol: (§1) In this example, glutaric anhydride was applied to temporal defects adjacent to periorbital areas. Skin defects were first subject to gentle dermabrasion followed by application of 0.1M disodium phosphate solution, pH 8.3 for 30 seconds using surgical gauze. Glutaric anhydride (50 mg/mL) was dissolved in ethanol or anhydrous alcohol and applied to the defects for 1 minute using surgical gauze. Treatment sites were then rinsed with 0.1M phosphate buffered saline, pH 7.2. Up to 5 treatments were made to specific skin sites.

Human Skin [2] = test: Acetylation of human skin using glutaric anhydride in pH adjusted vegetable oil without dermabrasion; assay type: in vivo; details: 30 mg/mL dispersed in vegetable oil adjusted to pH 9.0, 1 minute, one treatment, no dermabrasion
Protocol: (§2) In this example, glutaric anhydride was applied to temporal defects adjacent to periorbital areas. Skin defects were pretreated by application of 0.1M disodium phosphate solution, pH 8.3 for 30 seconds using surgical gauze. Glutaric anhydride powder (30 mg/mL) was dispersed in vegetable oil adjusted to a pH of 9.0 using 10N NaOH and gently applied to the wet defects for 1 minute using surgical gauze. The treatment sites were then rinsed with 0.1M phosphate buffered saline, pH 7.2. Only one treatment was made to temporal skin sites.

Human Skin [3] = test: Acetylation of human skin without dermabrasion, micro-needle roll or penetration enhancers; assay type: in vivo; details: 20 mg/mL in 0.3M disodium phosphate pH 8.9, 30 seconds to 1 minute, no dermabrasion
Protocol: In this example, the pre-treatment buffer, 0.1M disodium phosphate solution, pH 8.3, was applied for 30 seconds using surgical gauze. Glutaric anhydride (20 mg/mL) was mixed in 0.3M disodium phosphate solution at pH 8.9 and immediately (less than 5 seconds after dissolution) applied to the defects for 30 seconds to 1 minute using surgical gauze. Treatment sites were then rinsed with 0.1M phosphate buffered saline, pH 7.2. No effect on skin thickness or appearance was noted.

Processed Human Dermis = test: Acetylation of processed human skin (epithelium removed): mechanical properties; details: 100 mg/mL in dilute alkaline buffer pH 8.5, 1-minute treatment, vs specimen treated with buffer alone
Protocol: Processed human skin was obtained for treatment. The processed skin was comprised of lyophilized dermis. Two samples were tested, two 2 cm×4 cm specimens. One of specimens was treated with 100 mg/mL of glutaric anhydride. The second specimen was treated with buffer solution alone. The rejuvenation agent was prepared in dilute alkaline buffer solution, pH 8.5, quickly dissolved and applied to the dermis within 15 seconds. Prior to treatment with the active agent, skin specimens were pre-treated with buffer alone. Treatments were completed in 1-minute.

Human Skin [4] = test: Acetylation of human skin following dermabrasion (aqueous buffer); assay type: in vivo; details: 20 mg/mL in 0.3M disodium phosphate pH 8.9, after gentle dermabrasion, temporal defects
Protocol: In this example, glutaric anhydride was applied to temporal defects adjacent to periorbital areas. Skin defects were first subject to gentle dermabrasion followed by application of 0.1M disodium phosphate solution, pH 8.3 for 30 seconds using surgical gauze. Glutaric anhydride (20 mg/mL) was mixed in 0.3M disodium phosphate solution at pH 8.9 and immediately (less than 5 seconds after dissolution) applied to the defects for 30 seconds to 1 minute using surgical gauze. Treatment sites were then rinsed with 0.1M phosphate buffered saline, pH 7.2. Pre-treatment and post-treatment photos were taken and the results evaluated.

Human Skin [5] = test: Acetylation of human skin using glutaric anhydride powder without dermabrasion; assay type: in vivo; details: powder (10 mg/mL) applied to wet defects, 1 minute, no dermabrasion, up to 5 treatments
Protocol: In this example, glutaric anhydride was applied to temporal defects adjacent to periorbital areas. Skin defects were pretreated by application of 0.1M disodium phosphate solution, pH 8.3 for 30 seconds using surgical gauze. Glutaric anhydride powder (10 mg/mL) was gently applied to the wet defects for 1 minute, or until the powder dissolved, using surgical gauze. The powder Treatment sites were then rinsed with 0.1M phosphate buffered saline, pH 7.2. Up to 5 treatments were made to specific skin sites

Human Skin [6] = test: Acetylation of human skin using glutaric anhydride in pH adjusted vegetable oil following micro-needle roller treatment; assay type: in vivo; details: 40 mg/mL in vegetable oil adjusted to pH 9.1, forearm, 1 minute
Protocol: In this example, glutaric anhydride was applied to the forearm. A skin area approximately 4 mm×4 mm was punctured using a micro-needle roller, followed by pretreated with 0.1M disodium phosphate solution, pH 8.3 for 30 seconds using cotton swab. Glutaric anhydride powder (40 mg/mL) was dispersed in vegetable oil that was adjusted to a pH of 9.1 using granules of sodium hydroxide powder and gently applied to the pre-treated skin area for 1 minute using a cotton swab. The sites were rinsed using an alcohol swab.

Human Skin [7] = test: Acetylation of human skin using glutaric anhydride in alkaline EDTA solution following pretreatment with alkaline EDTA solution; assay type: in vivo; details: powder on gauze flushed with 0.035M disodium EDTA pH 9.0, upper cheek
Excerpt: In this example, glutaric anhydride was applied to the cheek. An area of the upper cheek, below the eye, was pretreated with pH adjusted 0.035M disodium EDTA (pH 9.0) applied using a gauze pad. Glutaric anhydride powder was finely ground using a mortar and pestle and rubbed into a second gauze pad. The gauze was placed on the treatment area and flushed with pH adjusted 0.035M disodium EDTA (pH 9.0) to deliver the glutaric anhydride to the treatment site as it dissolved in the EDTA solution. […] Two such applications were performed.

Human Skin [8] = test: Acetylation of human skin using glutaric anhydride in vegetable oil without dermabrasion; assay type: in vivo; details: 30 mg/mL dispersed in vegetable oil, 1 minute, one treatment, no dermabrasion
Protocol: as §2, with “oil” for “oil adjusted to a pH of 9.0 using 10N NaOH”

Human Skin [9] = test: Acetylation of human skin using glutaric anhydride in alkaline buffer solution following micro-needle roller treatment; assay type: in vivo; details: 40 mg/mL in 0.3M disodium phosphate pH 9.1, forearm
Protocol: In this example, glutaric anhydride was applied to the forearm. A skin area approximately 4 mm×4 mm was punctured using a micro-needle roller, followed by pretreated with 0.1M sodium phosphate buffer, pH 8.3 for 30 seconds using cotton swab. Glutaric anhydride powder (40 mg/mL) was dissolved in 0.3M disodium phosphate solution, pH 9.1 and gently applied to the pre-treated skin area for 1 minute using a cotton swab. The sites were final rinsed using an alcohol swab.

Human Skin (Temple Area) = test: Acetylation of human skin (temple area) following dermabrasion, in ethanol; assay type: in vivo; details: 50 mg/mL in ethanol, approximately 0.25 mL aliquots, 1 minute, after dermabrasion, up to 5 treatments
Protocol: as §1, with “ethanol. Aliquots of approximately 0.25 mL were” for “ethanol or anhydrous alcohol and”, “sites” for “sites.”

Human Skin [10] = test: Acetylation of human skin using alcohol penetration enhancer; assay type: in vivo; details: 50 mg/mL in ethanol, 1 minute, no dermabrasion, up to 5 treatments
Protocol: as §1, with “pretreated” for “first subject to gentle dermabrasion followed”, “ethanol” for “ethanol or anhydrous alcohol”, “sites” for “sites.”

[11] = after micro-needle roller, 1 minute

Sensation at treated sites immediately after treatment and for sometime after (Human Skin [2]): mild tingly feeling
Sensation at treated sites immediately after treatment and for sometime after (Human Skin [6]): mild tingly feeling
Color of treated sites (Human Skin [6]; after micro-needle roller): slightly red
Sensation as the glutaric anhydride penetrated the skin (Human Skin [7]): slight burning or tingly sensation
Redness at the treatment site (Human Skin [7]; after gauze removed and site flushed): Some redness
Sensation at treated sites immediately after treatment and for sometime after (Human Skin [8]): mild tingly feeling
Sensation at treated sites immediately after treatment (Human Skin [9]; 1 minute): mild tingly feeling
Color of treated sites (Human Skin [9]; [11]): slightly red
SMILES: O=C1CCCC(=O)O1 [glutaric anhydride]
Skin appearance (visual) [1]: visual improvement
Skin thickness at the treatment sites (tactile) [1]: tactile increase
Feel of application sites (Human Skin [2]): thicker and softer
Skin smoothness (visual) (Human Skin [2]): visual improvement
Skin thickness at the treatment sites (tactile) (Human Skin [2]): tactile increase
Effect on skin thickness or appearance (Human Skin [3]): No effect
Durometer, Change (increase) (Processed Human Dermis): 5.3% increase
Low Chord Modulus, Change (decrease) (Processed Human Dermis): 50.5% decrease
Thickness, Change (increase) (Processed Human Dermis): 18.3% increase
Water Retention, Change (increase) (Processed Human Dermis): 66.8% increase
Appearance of skin defects (Human Skin [4]): improvement
Skin smoothness (visual) (Human Skin [5]): No visual improvement
Tactile increase in skin at the treatment sites (Human Skin [5]): a tactile increase in skin as observed
Feel of application site (Human Skin [6]; after micro-needle roller): felt thicker immediately after treatment and for several days later
Skin thickness at the treatment sites (tactile) (Human Skin [6]; after micro-needle roller): tactile increase
Persistence of skin thickening (Human Skin [7]; after the second application): more than 2 weeks
Skin thickening at the treatment site (Human Skin [7]; after the second application): obvious minor skin thickening
Feel of application sites (Human Skin [8]): thicker and softer
Skin smoothness (visual) (Human Skin [8]): minor visual improvement
Skin thickness at the treatment sites (tactile) (Human Skin [8]): tactile increase
Feel of application site (Human Skin [9]; [11]): felt slightly thicker immediately after treatment only
Effect of repeated treatments on skin appearance (Human Skin [9]; after micro-needle roller, repeated treatments): appeared to enhance beneficial results
Skin smoothness (visual) (Human Skin (Temple Area)): visual improvement
Skin thickness at the treatment sites (tactile) (Human Skin (Temple Area)): tactile increase
Skin smoothness (visual) (Human Skin [10]): minor visual improvement
Skin thickness at the treatment sites (tactile) (Human Skin [10]): tactile increase

Source: patent US10888511B2, “Methods and articles of manufacture for the treatment of skin” (Advanced Collagen Science LLC, priority 2013, dated 2021)
